This note sets out measurements from ChEMBL document CHEMBL3638921, “Bicyclic aryl and heteroaryl sodium channel inhibitors” (2015).

Some results are limits rather than exact numbers.

Test [1] concerns the target T1, Sodium channel protein type 9 subunit alpha (Homo sapiens, UniProt Q15858). Description: In Vitro Assay: 293 Cells stably transfected with either Nav 1.7 or Nav 1.5 were recorded in population patch-clamp mode with the IonWorks Quattro automated electrophysiology system in accordance with the manufacturer's specifications (Molecular Devices, LLC, Sunnyvale, Calif.). Sodium channel currents were measured in response to a train of depolarizations that induced successively greater inactivation.Cells were held at -110 mV for three seconds (Nav 1.7) or half a second (Nav 1.5) from a holding voltage of -15 mV, then put through a series of 26 pulses of 150 msec duration to -20 mV at a frequency of 5 Hz. Cells were then left unclamped for a period of 3 to 8 minutes while a single concentration of test compound was added. Cells were then reclamped and put through the same voltage protocol. Current at the end of the 26th pulse to -20 mV was subtracted from the peak current evoked by the 26th pulse to -20 mV to correct for leak current. On the technique in general: In patch-clamp work, channel activity is measured electrically.

The target of test [2] is T1, Sodium channel protein type 9 subunit alpha. Put plainly: In Vitro PX Assay: 293 cells stably transfected with human Nav1.7 were recorded in whole cell voltage clamp mode with the PatchXpress automated electrophysiology system (Molecular Devices, LLC, Sunnyvale, Calif.). Compound effects were measured on a partially inactivated state of the sodium channel. Cells were clamped to a holding potential yielding 20 to 50% inactivation. To elicit sodium current, channels were activated by pulsing to −10 mV for 20 msec. This voltage protocol was repeated at a rate of 0.1 Hz throughout the experiment. A single concentration of test compound was applied to cells for a duration of 3 minutes. Peak sodium current was measured at the end of the compound addition period to determine percent inhibition. In kind it is cell-based.

T1 sequence (Q15858 whole entry): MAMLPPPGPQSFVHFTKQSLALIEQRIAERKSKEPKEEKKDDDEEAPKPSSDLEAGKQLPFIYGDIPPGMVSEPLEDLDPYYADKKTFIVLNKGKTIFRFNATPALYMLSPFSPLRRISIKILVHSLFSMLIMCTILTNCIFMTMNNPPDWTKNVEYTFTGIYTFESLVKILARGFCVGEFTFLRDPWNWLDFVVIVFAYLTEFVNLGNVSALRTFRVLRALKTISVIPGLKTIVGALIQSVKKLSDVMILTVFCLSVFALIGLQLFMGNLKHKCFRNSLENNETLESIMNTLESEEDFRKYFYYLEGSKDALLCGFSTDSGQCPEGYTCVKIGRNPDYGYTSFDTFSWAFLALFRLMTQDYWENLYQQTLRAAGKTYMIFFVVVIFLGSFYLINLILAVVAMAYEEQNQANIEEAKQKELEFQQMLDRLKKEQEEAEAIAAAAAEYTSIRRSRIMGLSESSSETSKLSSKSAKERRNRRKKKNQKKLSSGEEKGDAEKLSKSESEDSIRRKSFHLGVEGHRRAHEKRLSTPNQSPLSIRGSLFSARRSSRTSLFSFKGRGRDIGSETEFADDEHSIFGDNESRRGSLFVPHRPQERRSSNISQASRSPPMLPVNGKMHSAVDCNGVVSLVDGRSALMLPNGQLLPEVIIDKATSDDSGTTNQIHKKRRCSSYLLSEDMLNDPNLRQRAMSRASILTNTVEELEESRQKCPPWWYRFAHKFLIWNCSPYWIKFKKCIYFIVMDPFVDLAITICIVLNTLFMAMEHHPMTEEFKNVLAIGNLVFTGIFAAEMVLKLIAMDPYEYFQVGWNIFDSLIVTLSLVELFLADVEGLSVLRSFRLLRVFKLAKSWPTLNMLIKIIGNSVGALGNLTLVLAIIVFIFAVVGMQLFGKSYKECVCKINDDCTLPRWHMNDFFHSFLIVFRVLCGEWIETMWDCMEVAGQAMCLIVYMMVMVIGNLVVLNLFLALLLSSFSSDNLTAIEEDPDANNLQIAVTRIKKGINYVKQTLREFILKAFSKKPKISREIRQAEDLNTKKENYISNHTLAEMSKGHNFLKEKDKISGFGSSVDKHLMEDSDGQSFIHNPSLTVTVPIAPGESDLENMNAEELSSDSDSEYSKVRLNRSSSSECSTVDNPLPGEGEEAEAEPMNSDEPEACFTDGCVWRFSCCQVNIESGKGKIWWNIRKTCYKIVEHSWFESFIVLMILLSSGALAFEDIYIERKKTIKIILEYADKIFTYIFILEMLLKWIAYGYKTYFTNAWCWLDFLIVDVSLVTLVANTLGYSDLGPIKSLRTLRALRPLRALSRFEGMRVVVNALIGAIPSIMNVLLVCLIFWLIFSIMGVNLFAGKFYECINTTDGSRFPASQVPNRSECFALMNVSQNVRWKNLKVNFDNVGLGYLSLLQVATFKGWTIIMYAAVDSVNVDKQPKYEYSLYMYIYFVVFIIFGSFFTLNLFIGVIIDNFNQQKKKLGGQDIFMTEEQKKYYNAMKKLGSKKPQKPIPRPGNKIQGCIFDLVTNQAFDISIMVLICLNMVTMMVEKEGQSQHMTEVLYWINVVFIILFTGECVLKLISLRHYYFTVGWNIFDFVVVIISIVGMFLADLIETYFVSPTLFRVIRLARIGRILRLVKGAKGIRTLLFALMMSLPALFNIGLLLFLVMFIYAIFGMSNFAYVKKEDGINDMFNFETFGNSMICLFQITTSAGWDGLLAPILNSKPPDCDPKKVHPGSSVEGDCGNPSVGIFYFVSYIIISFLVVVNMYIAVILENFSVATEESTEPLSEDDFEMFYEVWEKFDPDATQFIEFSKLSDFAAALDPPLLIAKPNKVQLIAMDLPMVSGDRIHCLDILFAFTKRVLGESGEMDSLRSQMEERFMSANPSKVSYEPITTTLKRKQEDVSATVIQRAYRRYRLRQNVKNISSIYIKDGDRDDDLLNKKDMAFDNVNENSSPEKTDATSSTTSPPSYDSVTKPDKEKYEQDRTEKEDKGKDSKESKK

Molecule `Nc1cc(Cl)ccc1-c1cccc2cc(S(=O)(=O)Nc3ncns3)ccc12` displayed an IC50 in test [1] of 110 nM.

`Cc1cc(Cl)ccc1-c1cccc2cc(S(=O)(=O)Nc3ncns3)ccc12`: in test [1], the IC50 amounted to 190 nM. On the same count and under the same terms, the figure for `O=S(=O)(Nc1ncns1)c1ccc2c(-c3ccc(Cl)cc3)cccc2c1` is 190 nM.

`O=S(=O)(Nc1ncns1)c1ccc2c(-c3ccc(Cl)cc3F)cccc2c1`: half-maximal inhibition in test [1] (IC50) was put at 210 nM. The same measure, in the same setting: for `O=S(=O)(Nc1ncns1)c1ccc2c(-c3ccc(C(F)(F)F)cc3F)cccc2c1` the value was 210 nM; for `O=S(=O)(Nc1ncns1)c1ccc2c(-c3ccc(C(F)(F)F)cc3)cccc2c1`, 430 nM; for `O=S(=O)(Nc1ncns1)c1ccc2c(-c3ccc(Cl)cc3Cl)nccc2c1`, 70 nM.

For the molecule `O=S(=O)(Nc1ncns1)c1ccc2c(N3CCC3c3ccccc3)cccc2c1` (stereo not given), the figures for the 50% inhibitory concentration (IC50) in test [1] and in test [2] were 3900 nM and 10500 nM, respectively.

Regarding `CN1CCC(c2cc(C(F)(F)F)ccc2-c2cccc3cc(S(=O)(=O)Nc4ncc(F)s4)ccc23)CC1`, the results for the concentration for half-maximal inhibition (IC50) in test [1] and in test [2] were 150 nM and 282 nM, respectively. Taken in the same sequence, the figures for `COc1cc(Cl)ncc1-c1nccc2cc(S(=O)(=O)Nc3ccncn3)ccc12` were 460 nM and 18300 nM.

With `O=S(=O)(Nc1ccncn1)c1ccc2c(-c3cc(C(F)(F)F)ccc3F)nccc2c1`, the 50% inhibitory concentration (IC50) is 570 nM in test [1] and 10800 nM in test [2]. On to `COc1cc(C)ccc1-c1nccc2cc(S(=O)(=O)Nc3nccs3)ccc12`, for which the midpoint of inhibition in test [2], the IC50, lay at 393 nM. Turning to `O=S(=O)(Nc1nccs1)c1ccc2c(-c3ccc(F)cc3Oc3cccnn3)nccc2c1`, the 50% inhibitory concentration (IC50) in test [2] stood at 13500 nM. Regarding `O=S(=O)(Nc1nccs1)c1ccc2c(N3CCN(c4ccc(Cl)c(Cl)c4)CC3)nccc2c1`, the IC50 in test [2] is 10900 nM. For the molecule `COc1cc(C#N)ccc1-c1nncc2cc(S(=O)(=O)Nc3nccs3)ccc12`, the IC50 in test [1] came out at 260 nM; in test [2] it was 1230 nM. For `Cc1noc(C)c1-c1nccc2cc(S(=O)(=O)Nc3ccncn3)ccc12`, the IC50 in test [1] was above 10000 nM. `Cc1cnc(OCCOc2ccccc2)c(-c2nccc3cc(S(=O)(=O)Nc4nccs4)ccc23)c1` registered an IC50 in test [2] of 5160 nM.

As to `COc1cc(-c2cccnc2)ccc1-c1nccc2cc(S(=O)(=O)Nc3ccncn3)ccc12`, half-maximal inhibition in test [2] (IC50) was put at 5370 nM.

Regarding `O=S(=O)(Nc1nccs1)c1ccc2c(-c3ccc(C(F)(F)F)cc3Cl)ncnc2c1`, in test [2], the IC50 was found to be 971 nM. Same read-out and setting: the figure for `O=S(=O)(Nc1ccncn1)c1ccc2c(-c3ccc(-c4cccc(F)c4)cc3)nccc2c1` is 4500 nM.

Broadly, the IC50 is the midpoint of a concentration-inhibition curve. Low values mean inhibition by little substance, high ones a need for much substance.
